Experimental data taken from the NIST ThermoML archive (doi:10.1016/j.jct.2016.04.014).

Experiment: xn = mol fraction of the nth substance listed
Details: Liquid, Vibrating tube method

CCCCCCC [heptane] + CCO
mass density [kg/m3]
Details	100 kPa	500 kPa	5000 kPa	10000 kPa	15000 kPa	20000 kPa	25000 kPa	30000 kPa	35000 kPa	40000 kPa
323.15 K, x1 = 0.2505	–	–	–	–	726.1	730.6	734.8	738.9	742.7	746.4
323.15 K, x1 = 0.5004	–	–	–	–	699.4	704	708.4	712.4	716.3	720.1
323.15 K, x1 = 0.7501	–	–	–	–	683	687.7	692	696	699.9	703.6
333.15 K, x1 = 0.2505	701.1	701.6	706.9	712.5	717.6	722.4	726.9	731.2	735.2	739.1
333.15 K, x1 = 0.5004	674	674.5	680	685.7	691	695.9	700.5	704.8	708.9	712.8
333.15 K, x1 = 0.7501	657.7	658.2	663.8	669.6	674.9	679.8	684.3	688.6	692.7	696.6
353.15 K, x1 = 0.2505	–	681.4	687.7	694.1	700	705.5	710.5	715.3	719.7	724
353.15 K, x1 = 0.5004	–	654.2	660.8	667.5	673.6	679.1	684.3	689.1	693.7	698.1
353.15 K, x1 = 0.7501	–	638.4	645.1	651.8	657.9	663.5	668.6	673.4	678	682.3
373.15 K, x1 = 0.2505	–	659.3	666.9	674.5	681.4	687.6	693.3	698.6	703.6	708.4
373.15 K, x1 = 0.5004	–	632.2	640.2	648.1	655.3	661.7	667.5	672.9	678	682.9
373.15 K, x1 = 0.7501	–	617.2	625.3	633.3	640.4	646.8	652.6	658	663	667.9
